Test results: patent EP1090023B1 (GLAXO GROUP LIMITED, priority 1998, dated 1999)

How the values were obtained:
Format in all cases: cell-based
adenosine 1 = molecular target: T1, adenosine 1 (Homo sapiens, UniProt P30542); assay: Agonist activity against adenosine receptor subtypes, CHO cells with cAMP response element/SPAP reporter (forskolin-enhanced cAMP); settings: ratio to EC50 of NECA; transfected CHO cells; effect on forskolin-enhanced cAMP via SPAP
T1 sequence (P30542 1-326): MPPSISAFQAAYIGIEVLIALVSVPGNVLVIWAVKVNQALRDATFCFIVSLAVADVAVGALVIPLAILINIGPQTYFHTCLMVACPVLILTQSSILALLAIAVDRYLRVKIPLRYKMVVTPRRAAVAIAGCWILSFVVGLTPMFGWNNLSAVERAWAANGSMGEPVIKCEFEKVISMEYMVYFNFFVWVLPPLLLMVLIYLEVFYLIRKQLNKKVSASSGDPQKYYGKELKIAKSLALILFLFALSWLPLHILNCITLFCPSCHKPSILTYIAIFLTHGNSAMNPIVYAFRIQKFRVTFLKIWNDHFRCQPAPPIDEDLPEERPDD
Method: (§1) Compounds of the invention were tested for in vitro and in vivo biological activity in accordance with the following screens: • (1) Agonist activity against adenosine 2a, adenosine 1 and adenosine 3 receptor subtypes.
(§2) Agonist selectivity of compounds against other human adenosine receptors was determined using Chinese hamster ovary (CHO) cells transfected with the gene for the relevant human adenosine receptor following a method based on that of Castanon and Spevak, 1994 . The CHO cells were also transfected with cyclic AMP response elements promoting the gene for secreted placental alkaline phosphatase (SPAP) (Wood, 1995). The effect of test compounds was determined by their effects on basal levels of cAMP (A2a) or on forskolin-enhanced cAMP (A1 and A3) as reflected by changes in levels of SPAP. EC50 values for compounds were then determined as a ratio to that of the non-selective agonist N-ethyl carboxamide adenosine (NECA).

adenosine 3 = molecular target: T2, adenosine 3 (Homo sapiens, UniProt P0DMS8); assay: as above; settings: ratio to EC50 of NECA; transfected CHO cells; effect on forskolin-enhanced cAMP via SPAP
T2 sequence (P0DMS8 1-318): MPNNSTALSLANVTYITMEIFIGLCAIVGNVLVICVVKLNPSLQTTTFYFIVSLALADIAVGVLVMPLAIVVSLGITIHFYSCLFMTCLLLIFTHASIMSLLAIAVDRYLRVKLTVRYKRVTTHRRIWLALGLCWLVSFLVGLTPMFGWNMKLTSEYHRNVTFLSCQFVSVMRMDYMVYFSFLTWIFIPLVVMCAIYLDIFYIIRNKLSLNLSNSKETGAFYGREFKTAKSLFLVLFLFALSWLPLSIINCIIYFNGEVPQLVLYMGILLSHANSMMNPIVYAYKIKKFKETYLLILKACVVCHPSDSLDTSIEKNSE
Method: as §1, §2

adenosine 2a = adenosine 2a (Homo sapiens, UniProt P29274); assay: Agonist activity against adenosine receptor subtypes, CHO cells with cAMP response element/SPAP reporter (basal cAMP); settings: ratio to EC50 of NECA; transfected CHO cells; effect on basal cAMP via SPAP
Method: as §1, §2

Sequence of adenosine 2a (P29274 whole entry): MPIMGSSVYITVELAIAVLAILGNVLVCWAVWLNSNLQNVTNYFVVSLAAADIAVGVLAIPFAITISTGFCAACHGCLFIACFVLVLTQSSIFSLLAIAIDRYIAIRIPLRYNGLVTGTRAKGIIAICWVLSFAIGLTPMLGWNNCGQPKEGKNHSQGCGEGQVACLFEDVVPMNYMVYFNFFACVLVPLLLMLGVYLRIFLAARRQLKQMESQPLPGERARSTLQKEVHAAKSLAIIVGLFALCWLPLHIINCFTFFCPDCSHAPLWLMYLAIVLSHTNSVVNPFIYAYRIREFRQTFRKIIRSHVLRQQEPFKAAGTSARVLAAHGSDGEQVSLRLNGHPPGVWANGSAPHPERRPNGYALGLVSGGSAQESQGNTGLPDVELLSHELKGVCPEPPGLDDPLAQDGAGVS

| A1 (EC50 values as a ratio of that of NECA) (adenosine 1) | A3 (EC50 values as a ratio of that of NECA) (adenosine 3) | A2a (EC50 values as a ratio of that of NECA) (adenosine 2a) | SMILES |
| --- | --- | --- | --- |
| 5327 | >183 | 2.94 | CCc1nnc([C@H]2O[C@@H](n3cnc4c(NCC(c5ccccc5)c5ccccc5)nc(N[C@H](CO)C(C)C)nc43)[C@H](O)[C@@H]2O)[nH]1.O=CO [Example 7, (2R,3R,4S,5R)-2-[6-(2,2-Diphenyl-ethylamino)-2-(1S-hydroxymethyl-2-methyl-propylamino)-purin-9-yl]-5-(5-ethyl-4H-[1,2,4]triazol-3-yl)-tetrahydro-furan-3,4-diol formate] |
| >6032 | >147 | 3.25 | CCc1nnc([C@H]2O[C@@H](n3cnc4c(NCC(c5ccccc5)c5ccccc5)nc(N[C@@H]5CCNC5)nc43)[C@H](O)[C@@H]2O)[nH]1.O=CO [Example 9, (2R,3R,4S,5R)-2-[6-(2,2-Diphenyl-ethylamino)-2-(pyrrolidin-3R-ylamino)-purin-9-yl]-5-(5-ethyl-4H-[1,2,4]triazol-3-yl)-tetrahydro-furan-3,4-diol formate] |
| 2202 | >257 | 17.97 | CC(C)c1nnc([C@H]2O[C@@H](n3cnc4c(NCC(c5ccccc5)c5ccccc5)nc(N[C@H](CO)Cc5ccccc5)nc43)[C@H](O)[C@@H]2O)[nH]1.O=CO [Example 11, (2R,3R,4S,5R)-2-[6-(2,2-Diphenyl-ethylamino)-2-(1S-hydroxymethyl-2-phenyl-ethylamino)-purin-9-yl]-5-(5-isopropyl-4H-[1,2,4]triazol-3-yl)-tetrahydro-furan-3,4-diol formate] |
| 5515 | >223 | 18.9 | Cc1cnc([C@H]2O[C@@H](n3cnc4c(NCC(c5ccccc5)c5ccccc5)nc(N[C@@H]5CCNC5)nc43)[C@H](O)[C@@H]2O)o1.O=CO.O=CO [Example 18, (2R,3R,4S,5S)-2-[6-(2,2-Diphenyl-ethlyamino)-2-(pyrrolidin-3R-ylamino)-purin-9-yl]-5-(5-methyl-oxazol-2-yl)-tetrahydro-furan-3,4-diol diformate] |
| 3172 | >293 | 4.05 | Cc1nnc([C@H]2O[C@@H](n3cnc4c(NCC(c5ccccc5)c5ccccc5)nc(NCCc5cn(C)cn5)nc43)[C@H](O)[C@@H]2O)s1.O=CO.O=CO [Example 19, (2R,3R,4S,5S)-2-{6-(2,2-Diphenyl-ethylamino)-2-[2-(1-methyl-1H-imidazol-4-yl)-ethylamino]-purin-9-yl}-5-(5-methyl-[1,3,4]thiadiazol-2-yl)-tetrahydro-furan-3,4-diol diformate] |
| 2625 | >470 | 17.7 | Cc1nnc([C@H]2O[C@@H](n3cnc4c(NCC(c5ccccc5)c5ccccc5)nc(N[C@H](CO)Cc5ccccc5)nc43)[C@H](O)[C@@H]2O)s1.O=CO [Example 20, (2R,3R,4S,5S)-2-[6-(2,2-Diphenyl-ethylamino)-2-(1S-hydroxymethyl-2-phenyl-ethylamino)-purin-9-yl]-5-(5-methyl-[1,3,4]thiadiazol-2-yl)-tetrahydro-furan-3,4-diol formate] |
| 568.06 | >173 | 3.04 | CCc1nnc([C@H]2O[C@@H](n3cnc4c(NCC(c5ccccc5)c5ccccc5)nc(N[C@H](CO)Cc5ccccc5)nc43)[C@H](O)[C@@H]2O)o1.O=CO [Example 21, (2R,3R,4S,5S)-2-[6-(2,2-Diphenyl-ethylamino)-2-(1S-hydroxymethyl-2-phenyl-ethylamino)-purin-9-yl]-5-(5-ethyl-[1,3,4]oxadiazol-2-yl)-tetrahydro-furan-3,4-diol formate] |

Second part, the molecule before the results:

| SMILES | A1 (EC50 values as a ratio of that of NECA) (adenosine 1) | A3 (EC50 values as a ratio of that of NECA) (adenosine 3) | A2a (EC50 values as a ratio of that of NECA) (adenosine 2a) |
| --- | --- | --- | --- |
| CCc1nnc([C@H]2O[C@@H](n3cnc4c(NCC(c5ccccc5)c5ccccc5)nc(N[C@H]5CC[C@H](N)CC5)nc43)[C@H](O)[C@@H]2O)[nH]1.O=CO [Example 6, (2R,3R,4S,5R)-2-[2-(trans-4-Amino-cyclohexylamino)-6-(2,2-diphenyl-ethylamino)-purin-9-yl]-5-(5-ethyl-4H-[1,2,4]triazol-3-yl)-tetrahydro-furan-3,4-diol formate] | 6739 | >183 | 12.3 |
| CCc1nnc([C@H]2O[C@@H](n3cnc4c(NCC(c5ccccc5)c5ccccc5)nc(NCCN5CCOCC5)nc43)[C@H](O)[C@@H]2O)[nH]1.O=CO [Example 8, (2R,3R,4S,5R)-2-[6-(2,2-Diphenyl-ethylamino)-2-(2-morpholin-4-yl-ethylamino)-purin-9-yl]-5-(5-ethyl-4H-[1,2,4]triazol-3-yl)-tetrahydro-furan-3,4-diol formate] | >10735 | >183 | 19.4 |
| CC(C)c1nnc([C@H]2O[C@@H](n3cnc4c(NCC(c5ccccc5)c5ccccc5)nc(N[C@H]5CC[C@H](N)CC5)nc43)[C@H](O)[C@@H]2O)[nH]1.O=CO [Example 10, (2R,3R,4S,5R)-2-[2-(trans-4-Amino-cyclohexylamino)-6-(2,2-diphenyl-ethylamino)-purin-9-yl]-5-(5-isopropyl-4H-[1,2,4]triazol-3-yl)-tetrahydro-furan-3,4-diol formate] | 1453.5 | >326 | 16.85 |
| CCc1nc([C@H]2O[C@@H](n3cnc4c(NCC(c5ccccc5)c5ccccc5)nc(NCCc5cn(C)cn5)nc43)[C@H](O)[C@@H]2O)no1.O=CO [Example 13, (2R,3R,4S,5R)-2-{6-(2,2-Diphenyl-ethylamino)-2-[2-(1-methyl-1H-imidazol-4-yl)-ethylamino]-purin-9-yl}-5-(5-ethyl-[1,2,4]oxadiazol-3-yl)-tetrahydro-furan-3,4-diol formate] | 6620 | >194 | 1.29 |
| CCc1nc([C@H]2O[C@@H](n3cnc4c(NCC(c5ccccc5)c5ccccc5)nc(NCCN5CCCCC5)nc43)[C@H](O)[C@@H]2O)no1.O=CO [Example 14, (2R,3R,4S,5R)-2-[6-(2,2-Diphenyl-ethylamino)-2-(2-piperidin-1-yl-ethylamino)-purin-9-yl]-5-(5-ethyl-[1,2,4]oxadiazol-3-yl)-tetrahydro-furan-3,4-diol formate] | >=4762 | >190 | 12.86 |
| CCc1nc([C@H]2O[C@@H](n3cnc4c(NCC(c5ccccc5)c5ccccc5)nc(NCCN5CCOCC5)nc43)[C@H](O)[C@@H]2O)no1.O=CO [Example 15, (2R,3R,4S,5R)-2-[6-(2,2-Diphenyl-ethylamino)-2-(2-morpholin-4-yl-ethylamino)-purin-9-yl]-5-(5-ethyl-[1,2,4]oxadiazol-3-yl)-tetrahydro-furan-3,4-diol formate] | >=8649 | >190 | 13.62 |
| CCc1nc([C@H]2O[C@@H](n3cnc4c(NCC(c5ccccc5)c5ccccc5)nc(N[C@H](CO)Cc5ccccc5)nc43)[C@H](O)[C@@H]2O)no1.O=CO [Example 16, (2R,3R,4S,5R)-2-[6-(2,2-Diphenyl-ethylamino)-2-(1S-hydroxymethyl-2-phenyl-ethylamino)-purin-9-yl]-5-(5-ethyl-[1,2,4]oxadiazol-3-yl)-tetrahydro-furan-3,4-diol formate] | 4514.96 | >257 | 5.75 |
| Cc1cnc([C@H]2O[C@@H](n3cnc4c(NCCC5CCCCC5)nc(N[C@H](CO)Cc5ccccc5)nc43)[C@H](O)[C@@H]2O)o1.O=CO [Example 17, (2R,3R,4S,5S)-2-[6-(2-Cyclohexyl-ethylamino)-2-(1S-hydroxymethyl-2-phenyl-ethylamino)-purin-9-yl]-5-(5-methyl-oxazol-2-yl)-tetrahydro-furan-3,4-diol formate] | 538 | >518 | 5.45 |
